Assay results from publication doi:10.1101/2024.06.17.599304v1, “Dizocilpine derivatives with neuroprotective effect lacking the psychomimetic side effects” (biorxiv, 2024).
Counter-ions that a name gives are not always drawn.

Legend:
[1] = biological target: T1, hGluN1/hGluN2B (Homo sapiens, UniProt Q05586+Q13224); assay: cell-based; parameters: gene GRIN1; cDNA vectors for human GluN1-1a and GluN2B co-transfected with GFP in HEK293 cells; diheteromeric receptor; whole-cell voltage-clamp electrophysiology, inhibition of steady-state L-glutamate-induced currents at -60 mV; conditions: HEK293; -60 mV, 1 mM L-glutamate
T1 sequence (Q13224 27-1484, other chains not shown): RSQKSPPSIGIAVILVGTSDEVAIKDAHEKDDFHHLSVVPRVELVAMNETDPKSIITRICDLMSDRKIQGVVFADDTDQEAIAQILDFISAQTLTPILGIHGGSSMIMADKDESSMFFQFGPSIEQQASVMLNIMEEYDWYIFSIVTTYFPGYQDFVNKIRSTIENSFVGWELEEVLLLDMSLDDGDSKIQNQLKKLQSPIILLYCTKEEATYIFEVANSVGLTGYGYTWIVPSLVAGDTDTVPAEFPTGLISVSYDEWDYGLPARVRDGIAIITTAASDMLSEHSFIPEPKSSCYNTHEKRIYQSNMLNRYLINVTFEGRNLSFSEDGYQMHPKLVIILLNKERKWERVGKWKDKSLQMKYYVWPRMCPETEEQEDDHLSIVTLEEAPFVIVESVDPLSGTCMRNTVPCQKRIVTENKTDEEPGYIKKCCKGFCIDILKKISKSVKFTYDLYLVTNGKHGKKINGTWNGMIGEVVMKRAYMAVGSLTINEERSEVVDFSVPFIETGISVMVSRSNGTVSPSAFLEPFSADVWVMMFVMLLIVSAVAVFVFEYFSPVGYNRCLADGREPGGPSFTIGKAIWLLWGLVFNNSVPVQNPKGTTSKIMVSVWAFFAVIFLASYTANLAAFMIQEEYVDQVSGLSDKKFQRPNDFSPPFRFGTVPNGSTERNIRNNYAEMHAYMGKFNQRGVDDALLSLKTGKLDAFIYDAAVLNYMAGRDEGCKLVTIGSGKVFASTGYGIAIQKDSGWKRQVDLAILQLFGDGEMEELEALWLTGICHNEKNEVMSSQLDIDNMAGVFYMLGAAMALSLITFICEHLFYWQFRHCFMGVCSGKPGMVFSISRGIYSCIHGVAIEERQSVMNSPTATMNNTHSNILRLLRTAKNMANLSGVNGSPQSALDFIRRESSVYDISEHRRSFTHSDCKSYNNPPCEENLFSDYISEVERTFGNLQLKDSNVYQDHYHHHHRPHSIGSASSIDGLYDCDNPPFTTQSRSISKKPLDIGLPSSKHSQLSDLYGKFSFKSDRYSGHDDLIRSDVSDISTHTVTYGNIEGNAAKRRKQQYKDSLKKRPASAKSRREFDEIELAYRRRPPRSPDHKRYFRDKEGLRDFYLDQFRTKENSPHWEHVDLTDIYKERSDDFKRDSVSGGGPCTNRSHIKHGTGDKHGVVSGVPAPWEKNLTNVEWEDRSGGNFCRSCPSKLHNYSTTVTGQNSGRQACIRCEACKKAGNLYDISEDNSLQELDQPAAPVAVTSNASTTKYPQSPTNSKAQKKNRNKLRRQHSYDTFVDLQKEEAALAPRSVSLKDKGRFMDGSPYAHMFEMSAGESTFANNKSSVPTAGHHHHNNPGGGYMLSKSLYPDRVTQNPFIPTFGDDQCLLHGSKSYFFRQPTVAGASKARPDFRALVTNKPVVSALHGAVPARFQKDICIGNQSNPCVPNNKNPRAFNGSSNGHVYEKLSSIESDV
Description: (§1) First, we determined the relative inhibition of all novel compounds on the two major diheteromeric NMDA receptor subtypes in the adult cortex – GluN1/GluN2A and GluN1/GluN2B [1] – using a clinically relevant concentration (3 µM). We kept the measured cells at a membrane potential of -60 mV, and the values of relative inhibition by the compounds were calculated from the L-glutamate-induced responses of human versions of the GluN1/GluN2A (hGluN1/hGluN2A) and GluN1/GluN2B (hGluN1/hGluN2B) receptors obtained under steady-state conditions. […] Specifically, in the case of hGluN1/hGluN2A receptors, we obtained relative inhibition values ranging from ∼5% for compound 3h to ∼93% for compound 6f, while for hGluN1/hGluN2B receptors, we measured values ranging from ∼3% for compound 3i to ∼92% for compound 6g at a fixed dose of 3 µM of the tested compound. […] It can be assumed that the positive and negative effects of a given inhibitor of the NMDA receptor in vivo are caused by their affinity and the kinetics of inhibition, in addition to their availability in the CNS. […] In further experiments, we generated concentration-response curves for 6f (0.03-10 µM) and 3l (0.3-300 µM) on both hGluN1/hGluN2A and hGluN1/hGluN2B receptors at negative (-60 mV) and positive (40 mV) membrane potentials (Fig. 2A-D). […] (A, C) Representative whole-cell voltage-clamp recordings of HEK293 cells expressing hGluN1/hGluN2A or hGluN1/hGluN2B receptors showing the inhibitory effects of compound 6f (0.03 - 300 µM) and compound 3l (0.3 - 300 µM) at membrane potentials of 40 mV (A) and -60 mV (C). Glu = 1 mM L-glutamate. (B, D) Normalized inhibitory concentration-response curves for compound 6f and compound 3l for hGluN1/hGluN2A and hGluN1/hGluN2B receptors at membrane potentials of 40 mV (B) and -60 mV (D). Concentration-response curves were fitted using Equation 1; the resulting IC50 values, Hill coefficients, and the numbers of cells measured for each membrane potential are shown in Table 3.

[2] = biological target: T2, human recombinant AChE (hAChE) (Homo sapiens, UniProt P22303); assay: modified Ellman's method; format: biochemical
T2 construct: recombinant enzyme purchased from Merck
T2 sequence (P22303 32-614): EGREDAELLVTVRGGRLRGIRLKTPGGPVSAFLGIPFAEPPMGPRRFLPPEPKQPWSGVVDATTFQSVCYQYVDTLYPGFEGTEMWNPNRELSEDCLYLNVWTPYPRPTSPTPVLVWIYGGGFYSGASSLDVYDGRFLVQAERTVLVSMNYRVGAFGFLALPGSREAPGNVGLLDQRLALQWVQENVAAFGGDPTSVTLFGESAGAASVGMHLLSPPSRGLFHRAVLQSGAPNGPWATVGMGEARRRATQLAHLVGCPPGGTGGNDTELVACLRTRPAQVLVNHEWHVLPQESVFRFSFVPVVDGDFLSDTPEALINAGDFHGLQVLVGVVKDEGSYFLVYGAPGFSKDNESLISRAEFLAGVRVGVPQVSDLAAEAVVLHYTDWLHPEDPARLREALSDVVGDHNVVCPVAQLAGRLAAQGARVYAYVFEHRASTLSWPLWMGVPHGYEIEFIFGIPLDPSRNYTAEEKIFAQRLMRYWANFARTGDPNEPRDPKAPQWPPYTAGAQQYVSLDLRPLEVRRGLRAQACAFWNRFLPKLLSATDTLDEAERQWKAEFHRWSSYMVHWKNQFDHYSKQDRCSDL

[3] = biological target: T3, hGluN1/hGluN2A (Homo sapiens, UniProt Q05586+Q12879); assay: cell-based; parameters: gene GRIN1; cDNA vectors for human GluN1-1a and GluN2A co-transfected with GFP in HEK293 cells; diheteromeric receptor; whole-cell voltage-clamp electrophysiology, inhibition of steady-state L-glutamate-induced currents at -60 mV; conditions: HEK293; -60 mV, 1 mM L-glutamate
T3 sequence (Q12879 23-1464, other chains not shown): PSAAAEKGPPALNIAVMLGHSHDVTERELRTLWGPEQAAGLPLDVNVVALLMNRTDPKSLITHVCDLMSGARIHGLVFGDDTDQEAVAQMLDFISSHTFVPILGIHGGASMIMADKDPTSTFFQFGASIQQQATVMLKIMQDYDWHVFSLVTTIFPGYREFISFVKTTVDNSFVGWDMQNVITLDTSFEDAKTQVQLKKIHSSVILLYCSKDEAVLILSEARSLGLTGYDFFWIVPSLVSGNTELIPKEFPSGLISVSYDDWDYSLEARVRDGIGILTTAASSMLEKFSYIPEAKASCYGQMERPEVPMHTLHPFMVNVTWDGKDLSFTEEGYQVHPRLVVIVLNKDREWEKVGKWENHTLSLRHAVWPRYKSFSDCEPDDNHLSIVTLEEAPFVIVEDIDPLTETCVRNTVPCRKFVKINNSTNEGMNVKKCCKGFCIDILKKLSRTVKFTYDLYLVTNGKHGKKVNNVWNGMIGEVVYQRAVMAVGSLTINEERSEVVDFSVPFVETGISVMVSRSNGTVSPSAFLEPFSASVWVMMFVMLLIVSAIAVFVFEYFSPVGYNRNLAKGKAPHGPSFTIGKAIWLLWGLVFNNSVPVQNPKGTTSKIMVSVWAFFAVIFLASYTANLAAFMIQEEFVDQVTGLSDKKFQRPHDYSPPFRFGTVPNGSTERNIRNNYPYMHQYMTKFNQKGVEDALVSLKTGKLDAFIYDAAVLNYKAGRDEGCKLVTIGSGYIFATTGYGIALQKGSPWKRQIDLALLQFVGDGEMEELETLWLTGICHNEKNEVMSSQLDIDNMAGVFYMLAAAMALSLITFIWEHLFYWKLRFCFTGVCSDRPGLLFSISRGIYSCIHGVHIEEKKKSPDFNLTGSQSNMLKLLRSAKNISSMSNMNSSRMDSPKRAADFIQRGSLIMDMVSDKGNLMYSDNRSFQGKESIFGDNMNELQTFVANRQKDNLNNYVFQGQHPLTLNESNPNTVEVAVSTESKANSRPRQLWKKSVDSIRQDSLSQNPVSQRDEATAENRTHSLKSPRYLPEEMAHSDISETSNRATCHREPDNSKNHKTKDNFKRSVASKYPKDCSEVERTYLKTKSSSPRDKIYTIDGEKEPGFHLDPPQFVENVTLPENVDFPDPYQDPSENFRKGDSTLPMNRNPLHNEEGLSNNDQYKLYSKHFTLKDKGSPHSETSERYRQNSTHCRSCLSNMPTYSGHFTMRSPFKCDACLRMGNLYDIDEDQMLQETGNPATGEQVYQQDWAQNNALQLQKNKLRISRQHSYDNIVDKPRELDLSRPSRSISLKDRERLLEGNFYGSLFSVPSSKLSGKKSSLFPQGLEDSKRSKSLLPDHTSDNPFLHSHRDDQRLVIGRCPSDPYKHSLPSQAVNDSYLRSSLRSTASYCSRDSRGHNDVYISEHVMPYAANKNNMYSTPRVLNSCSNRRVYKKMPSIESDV
Description: as §1

[4] = biological target: T4, human plasmatic butyrylcholinesterase (hBChE) (Homo sapiens, UniProt P06276); assay: biochemical
T4 construct: gene BCHE
T4 sequence (P06276 29-602): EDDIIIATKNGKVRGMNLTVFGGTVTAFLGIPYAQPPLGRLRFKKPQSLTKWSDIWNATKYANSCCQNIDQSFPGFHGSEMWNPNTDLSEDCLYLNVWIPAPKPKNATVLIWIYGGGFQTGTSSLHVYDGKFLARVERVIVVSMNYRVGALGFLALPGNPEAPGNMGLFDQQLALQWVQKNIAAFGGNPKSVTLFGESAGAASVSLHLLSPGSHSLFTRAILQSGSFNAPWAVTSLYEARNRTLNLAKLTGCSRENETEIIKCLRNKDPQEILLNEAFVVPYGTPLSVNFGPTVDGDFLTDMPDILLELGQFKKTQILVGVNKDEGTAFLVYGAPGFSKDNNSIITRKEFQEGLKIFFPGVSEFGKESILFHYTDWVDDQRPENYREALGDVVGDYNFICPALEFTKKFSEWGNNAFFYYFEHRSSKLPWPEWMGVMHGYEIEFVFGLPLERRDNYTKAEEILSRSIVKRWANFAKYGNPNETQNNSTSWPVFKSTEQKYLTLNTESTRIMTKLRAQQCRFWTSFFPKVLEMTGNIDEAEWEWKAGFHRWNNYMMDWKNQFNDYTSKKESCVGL

[5] = biological target: T1, hGluN1/hGluN2B; parameters: gene GRIN1; conditions: -60 mV; 1 mM L-glutamate, 100 µM glycine; pH 7.3
[6] = biological target: T3, hGluN1/hGluN2A; parameters: gene GRIN1; conditions: -60 mV; 1 mM L-glutamate, 100 µM glycine; pH 7.3

Row | SMILES | inhibition at 3 µM [1] [%] | IC50 [2] [µM] | inhibition at 3 µM [3] [%] | IC50 [4] [µM] | RI (%) at 3 μM [5] [%] | RI (%) at 3 μM [6] [%]
1 | c1ccc2c(c1)CCc1ccccc1C2N1CCCC1 [3k, 1-(10,11-dihydro-5H-dibenzo[a,d][7]annulen-5-yl)pyrrolidine hydrochloride] | 62.1 ± 3.44 | > 100 | 49.8 ± 3.27 | > 100 |  | 
2 | COCCNC1c2ccccc2C=Cc2ccccc21 [6j, N-(2-methoxyethyl)-5H-dibenzo[a,d][7]annulen-5-amine hydrochloride] | 60 ± 4.39 | > 100 | 35.6 ± 1.09 | > 100 |  | 
3 | c1ccc2c(c1)CCc1ccccc1C2NC1CC1 [3d, N-cyclopropyl-10,11-dihydro-5H-dibenzo[a,d][7]annulen-5-amine hydrochloride] | 53.6 ± 3.16 | > 100 | 40.1 ± 3.42 | > 100 |  | 
4 | c1ccc2c(c1)CCc1ccccc1C2N1CCOCC1 [3i, 4-(10,11-dihydro-5H-dibenzo[a,d][7]annulen-5-yl)morpholine hydrochloride] | 3.43 ± 1.33 | > 100 | 6.78 ± 1.67 | > 100 |  | 
5 | CC(C)CNC1c2ccccc2CCc2ccccc21 [3f, N-isobutyl-10,11-dihydro-5H-dibenzo[a,d][7]annulen-5-amine hydrochloride] |  | > 100 | 76.8 ± 2.99 | > 100 | 91.62 ± 0.99 | 
6 | CCCCNC1c2ccccc2C=Cc2ccccc21 [6e, N-butyl-5H-dibenzo[a,d][7]annulen-5-amine hydrochloride] | 79.2 ± 2.84 | > 100 | 81.1 ± 2.62 | > 100 |  | 
7 | CCN(CC)C1c2ccccc2CCc2ccccc21 [3n, N,N-diethyl-10,11-dihydro-5H-dibenzo[a,d][7]annulen-5-amine hydrochloride] | 75 ± 3.14 | > 100 | 68.4 ± 4.84 | > 100 |  | 
8 | CC(C)NC1c2ccccc2CCc2ccccc21 [3c, N-isopropyl-10,11-dihydro-5H-dibenzo[a,d][7]annulen-5-amine hydrochloride] | 76.9 ± 3.57 | > 100 | 52.2 ± 5.23 | > 100 |  | 
9 | CCN1CCN(C2c3ccccc3CCc3ccccc32)CC1 [3o, 1-(10,11-dihydro-5H-dibenzo[a,d][7]annulen-5-yl)-4-ethylpiperazine dihydrochloride] | 5.22 ± 1.49 | > 100 | 7.64 ± 0.84 | > 100 |  | 
10 | COCCNC1c2ccccc2CCc2ccccc21 [3j, N-(2-methoxyethyl)-10,11-dihydro-5H-dibenzo[a,d][7]annulen-5-amine hydrochloride] | 66.6 ± 3.9 | > 100 | 34.9 ± 4.8 | > 100 |  | 
11 | CNC1c2ccccc2CCc2ccccc21 [3a, N-methyl-10,11-dihydro-5H-dibenzo[a,d][7]annulen-5-amine hydrochloride] | 71 ± 1.75 | > 100 |  | > 100 |  | 82.34 ± 3.25
12 | CC(C)NC1c2ccccc2C=Cc2ccccc21 [6c, N-isopropyl-5H-dibenzo[a,d][7]annulen-5-amine hydrochloride] | 76 ± 2.22 | > 100 | 75.6 ± 2.36 | > 100 |  | 
13 | CNC1c2ccccc2C=Cc2ccccc21 [6a, N-methyl-5H-dibenzo[a,d][7]annulen-5-amine hydrochloride] | 68.9 ± 3.57 | > 100 | 54.3 ± 3.11 | > 100 |  | 
14 | c1ccc2c(c1)CCc1ccccc1C2N1CCCCC1 [3h, 1-(10,11-dihydro-5H-dibenzo[a,d][7]annulen-5-yl)piperidine hydrochloride] | 5.2 ± 1.56 | > 100 | 5.4 ± 1.39 | > 100 |  | 
15 | CCNC1c2ccccc2CCc2ccccc21 [3b, N-ethyl-10,11-dihydro-5H-dibenzo[a,d][7]annulen-5-amine hydrochloride] | 51.8 ± 3.39 | > 100 | 34 ± 4.6 | > 100 |  | 
16 | C1=Cc2ccccc2C(N2CCOCC2)c2ccccc21 [6i, 4-(5H-dibenzo[a,d][7]annulen-5-yl)morpholine hydrochloride] | 57.6 ± 3.47 | > 100 | 31.9 ± 4.16 | > 100 |  | 
17 | OCCNC1c2ccccc2C=Cc2ccccc21 [6l, 2-((5H-dibenzo[a,d][7]annulen-5-yl)amino)ethanol hydrochloride] | 48.8 ± 4.13 | > 100 | 38.2 ± 3.8 | > 100 |  | 
18 | CN1CCN(C2c3ccccc3CCc3ccccc32)CC1 [3m, 1-(10,11-dihydro-5H-dibenzo[a,d][7]annulen-5-yl)-4-methylpiperazine dihydrochloride] | 9.49 ± 2.17 | > 100 | 9.7 ± 2.41 | > 100 |  | 
19 | C1=Cc2ccccc2C(NC2CCCCC2)c2ccccc21 [6g, N-cyclohexyl-5H-dibenzo[a,d][7]annulen-5-amine hydrochloride] |  |  |  | 8.5 ± 0.4 | 92.37 ± 1.82 | 92.12 ± 1.48
20 | CCCCNC1c2ccccc2CCc2ccccc21 [3e, N-butyl-10,11-dihydro-5H-dibenzo[a,d][7]annulen-5-amine hydrochloride] | 85.8 ± 2.19 | > 100 | 76.4 ± 4.03 | > 100 |  | 
21 | c1ccc2c(c1)CCc1ccccc1C2NC1CCCCC1 [3g, N-cyclohexyl-10,11-dihydro-5H-dibenzo[a,d][7]annulen-5-amine hydrochloride] |  |  | 79.4 ± 2.06 | 14.4 ± 1.3 | 85.95 ± 3.13 | 
22 | C1=Cc2ccccc2C(NC2CC2)c2ccccc21 [6d, N-cyclopropyl-5H-dibenzo[a,d][7]annulen-5-amine hydrochloride] | 57.2 ± 3.27 | > 100 | 45 ± 3.55 | > 100 |  | 
23 | CCNC1c2ccccc2C=Cc2ccccc21 [6b, N-ethyl-5H-dibenzo[a,d][7]annulen-5-amine hydrochloride] | 59.9 ± 3.15 | > 100 | 39.9 ± 4.78 | > 100 |  | 
24 | C1=Cc2ccccc2C(N2CCCC2)c2ccccc21 [6k, 1-(5H-dibenzo[a,d][7]annulen-5-yl)pyrrolidine hydrochloride] | 85.53 ± 0.21 | > 100 | 48.6 ± 2.99 | > 100 |  | 
